{"source": "patent US8597920B2", "about": "“Class of Chloroflexi-like thermophilic cellulose degrading bacteria” (priority 2008, dated 2013)", "key": {"Chloroflexus isolate T81 [1]": {"system": "Chloroflexus isolate T81", "assay": "Growth on sole energy sources (metabolism experiments)", "assay_type": "cell-based, thermophilic Chloroflexi-like bacteria", "conditions": "AOM1 (pH 6.5) and FS3V (pH 4.5)", "protocol": "(§1) Mineral salts medium FS3V, FeEDTA, Trace elements solution and AOM1 medium were prepared as for Example 1. Energy sources were added to both media prior to autoclaving (0.5 g/L), except where noted, via syringe filter.\n(§2) Unless otherwise stated, the following growth conditions were used for all experiments; Chloroflexus strains were grown aerobically at 60° C. in capped 100 mL serum bottles containing 50 mL of medium and 50 mL air headspace. No CO2 was amended to the headspace. Medium was sterilised via autoclaving (121° C., 20 min). Fifty μL of culture was inoculated into 50 mL of sterile medium. Stock Chloroflexus strains were maintained in liquid culture on mannose and on carboxymethylcellulose (CMC), and on phytagel-based solid medium.\n(§3) Growth experiments to determine growth using different energy sources were conducted using the basal media, AOM1 or FS3V. No yeast extract (YE) or vitamins were added as growth supplements to either medium in these series of experiments. […] Both the YE and vitamin mix were also tested as sole energy sources.\n(§4) Sole energy sources were added at a concentration of (0.5 g/L). […] Yeast extract (Becton Dickinson, 211929), sodium pyruvate (Sigma, P2256), sodium citrate (Ajax Finechem, A467,) and sodium acetate (Sigma, S2881), were also tested as sole energy sources, along with the alcohols methanol (Merck, 1.06018), ethanol (Merck, 1.00983), 1-propanol (Merck, 1.01024), 2-propanol (Merck, 1.01040), pentanol (Sigma, 138975) and butanol (Sigma, 1.01988). A vitamin mix was tested as a sole energy source. The vitamin mixture contained (in 100 mg): 0.8 mg folic acid; 8 mg vitamin B1; 4 mg vitamin B2; 1 mg niacin; 10 mg niacinamide; 15 mg pantothenate; 15 mg pyridoxine; 5 mg cobalamin; 5 mg biotin; 15 mg choline; 15 mg inositol; 7 mg para-amino benzoic acid and was tested at 10 and 100 mg/L.\n(§5) Experiments were inoculated using stock cultures of T81, T12 and T26 grown in a corresponding medium with a corresponding energy source type. For example, inoculum for testing growth on a cellulose-based compound was grown in the corresponding medium with a cellulose-based compound as an energy source. All energy sources were added at a concentration of 0.5 g/L prior to autoclave sterilisation, except for D-N-acetylglucosamine, D-(−)-fructose, sodium acetate, sodium citrate, sodium pyruvate, methanol, ethanol, 1-propanol, 2-propanol, pentanol and butanol which were added via filter sterilisation (0.22 μm pore size membrane syringe filter). Tests were conducted in triplicate with a sterile control."}, "Chloroflexus isolate T26": {"system": "Chloroflexus isolate T26", "assay": "Growth on sole energy sources (metabolism experiments)", "assay_type": "cell-based, thermophilic Chloroflexi-like bacteria", "conditions": "aerobic, 60° C.; for Growth of T26 on sole energy source, AOM1: AOM1 medium (pH 6.5), energy source 0.5 g/L", "protocol": "as §1, §2, §3, §4, §5"}, "Chloroflexus isolate T81 [2]": {"system": "Chloroflexus isolate T81", "assay": "Growth on sole energy sources (metabolism experiments)", "assay_type": "cell-based, thermophilic Chloroflexi-like bacteria", "conditions": "aerobic, 60° C.; for Growth of T81 on sole energy source, FS3V: FS3V medium (pH 4.5), energy source 0.5 g/L; for Growth of T81 on alcohol as sole energy source, FS3V: alcohol 0.05% v/v"}, "Chloroflexus isolate T12 [3]": {"system": "Chloroflexus isolate T12", "assay": "Growth on sole energy sources (metabolism experiments)", "assay_type": "cell-based, thermophilic Chloroflexi-like bacteria", "conditions": "for Growth of T12 on alcohol as sole energy source, FS3V: alcohol 0.05% v/v, aerobic, 60° C.", "protocol": "as §1, §2, §3, §4, §5"}, "Strain T81": {"system": "Strain T81", "assay": "Preference for alcohols over saccharides (fructose with ethanol, HPLC)", "assay_type": "cell-based, thermophilic Chloroflexi-like bacteria", "conditions": "FS3V, 60° C.", "protocol": "Unless otherwise stated, sugars and/or alcohols were measured on a Dionex Ultimate 3000® High Performance Liquid Chromatography (HPLC) unit via refractive index (RI) on a Shodex RI-101 unit (Dionex, Utah, USA). The RI unit was run at 35° C. Samples (10 μL) were injected into a degassed water carrier solution running at 0.6 mL/min. Samples were separated on a Varian PL Hi-Plex H (8 μm, 300×7.7 mm) at 60° C. (Varian, Massachusetts, USA). Chromatographs were interpreted using Chromeleon® software (Dionex, Utah, USA). Strain […] was also tested for it's preference for alcohols over saccharides. […] Strain […] was inoculated and incubated statically at 60° C. One milliliter samples were taken daily and frozen for analysis using HPLC."}, "Chloroflexus isolate T12 [4]": {"system": "Chloroflexus isolate T12", "conditions": "FS3V, pH 4.5; ethanol as sole energy source", "protocol": "All three Chloroflexus strains were tested for their ability to grow on elevated levels of ethanol. Ethanol at concentrations of 0.1%, 1.0%, 2.0%, 5.0%, 7.5%, and 10.0% (v/v) were asceptically added into FS3V medium following sterilisation as the sole energy source. Strains were then inoculated and incubated statically."}, "[5]": {"system": "Chloroflexus strains T81, T26 and T12", "assay": "Growth on energy sources, statements for all three strains together", "assay_type": "cell-based, thermophilic Chloroflexi-like bacteria", "protocol": "Growth experiments to determine growth using different energy sources were conducted using the basal media, AOM1 or FS3V. No yeast extract (YE) or vitamins were added as growth supplements to either medium in these series of experiments. Preliminary experiments have shown that they are not requited. Both the YE and vitamin mix were also tested as sole energy sources. Sole energy sources were added at a concentration of (0.5 g/L). […] A vitamin mix was tested as a sole energy source. The vitamin mixture contained (in 100 mg): 0.8 mg folic acid; 8 mg vitamin B1; 4 mg vitamin B2; 1 mg niacin; 10 mg niacinamide; 15 mg pantothenate; 15 mg pyridoxine; 5 mg cobalamin; 5 mg biotin; 15 mg choline; 15 mg inositol; 7 mg para-amino benzoic acid and was tested at 10 and 100 mg/L. Experiments were inoculated using stock cultures of […], T12 and […] grown in a corresponding medium with a corresponding energy source type. For example, inoculum for testing growth on a cellulose-based compound was grown in the corresponding medium with a cellulose-based compound as an energy source. […] Bacterial growth was determined visually as optical density (OD) measurements are not possible due to growth characteristics of the Chloroflexi isolates. […] Cellulose pulp degradation and sugar generation by Chloroflexus strain […] was assessed. […] Growth on the various pulp tablets was assessed visually."}}}
{"molecule": "O=C[C@H](O)[C@@H](O)[C@H](O)CO", "note": "[D-(+)-xylose]", "values": [{"measurement": "Growth of T81 on both media", "setting": "Chloroflexus isolate T81 [1]", "result": "grew"}]}
{"molecule": "CC(=O)N[C@H]1C(O)O[C@H](CO)[C@@H](O)[C@@H]1O", "note": "(stereo partly drawn) [D-N-acetylglucosamine]", "values": [{"measurement": "Growth of T26 on sole energy source, AOM1", "setting": "Chloroflexus isolate T26; listed as D-N-actylglucosamine", "result": "could grow"}]}
{"molecule": "O=C[C@H](O)[C@H](O)[C@H](O)CO", "note": "[D-(−)-ribose]", "values": [{"measurement": "Growth of T81 on sole energy source, FS3V", "setting": "Chloroflexus isolate T81 [2]", "result": "grew"}]}
{"molecule": "C[C@@H]1O[C@@H](O)[C@H](O)[C@H](O)[C@H]1O.O", "note": "[L-rhammnose monohydrate]", "values": [{"measurement": "Growth of T81 on both media", "setting": "Chloroflexus isolate T81 [1]", "result": "grew"}, {"measurement": "Growth of T26 on sole energy source, AOM1", "setting": "Chloroflexus isolate T26; listed as L-rhamnose monohydrate, monohydrate", "result": "could grow"}]}
{"molecule": "CCCCCO", "note": "[1-pentanol]", "values": [{"measurement": "Growth of T12 on alcohol as sole energy source, FS3V", "setting": "Chloroflexus isolate T12 [3]", "result": "exception"}, {"measurement": "Growth of T81 on alcohol as sole energy source, FS3V", "setting": "Chloroflexus isolate T81 [2]", "result": "exception"}]}
{"molecule": "butanol", "values": [{"measurement": "Growth of T12 on alcohol as sole energy source, FS3V", "setting": "Chloroflexus isolate T12 [3]", "result": "exception"}]}
{"molecule": "O=C(CO)[C@@H](O)[C@H](O)[C@H](O)CO", "note": "[D-(−)-fructose]", "values": [{"measurement": "Consumption by T81 in presence of ethanol and fructose", "setting": "Strain T81; ethanol (0.05% w/v) and fructose (0.05% w/v)", "result": "consumed fructose in preference to ethanol"}, {"measurement": "Growth of T81 on both media", "setting": "Chloroflexus isolate T81 [1]", "result": "grew"}]}
{"molecule": "CCCO", "note": "[propanol]", "values": [{"measurement": "Growth of T26 on alcohol as sole energy source, FS3V", "setting": "Chloroflexus isolate T26; FS3V, alcohol 0.05% v/v", "result": "best growth"}, {"measurement": "Growth of T81 on alcohol as sole energy source, FS3V", "setting": "Chloroflexus isolate T81 [2]", "result": "best growth"}]}
{"molecule": "O=C[C@H](O)[C@@H](O)[C@@H](O)[C@H](O)CO", "note": "[D-(+)-galactose]", "values": [{"measurement": "Growth of T81 on both media", "setting": "Chloroflexus isolate T81 [1]", "result": "grew"}]}
{"molecule": "OC[C@H]1O[C@@](CO)(O[C@H]2O[C@H](CO)[C@@H](O)[C@H](O)[C@H]2O)[C@@H](O)[C@@H]1O", "note": "[sucrose]", "values": [{"measurement": "Growth of T81 on both media", "setting": "Chloroflexus isolate T81 [1]", "result": "grew"}]}
{"molecule": "O=C[C@@H](O)[C@@H](O)[C@H](O)[C@H](O)CO", "note": "[D-(+)-mannose]", "values": [{"measurement": "Growth of Strain T12 in AOM1 medium adjusted to pH 4.5", "setting": "Chloroflexus isolate T12 [3]; AOM1 medium adjusted to pH 4.5", "result": "able to grow"}, {"measurement": "Growth of T81 on both media", "setting": "Chloroflexus isolate T81 [1]", "result": "grew"}]}
{"molecule": "OC[C@H]1O[C@@H](O[C@H]2[C@H](O)[C@@H](O)[C@H](O)O[C@@H]2CO)[C@H](O)[C@@H](O)[C@@H]1O", "note": "[D-(+)-cellobiose]", "values": [{"measurement": "Growth of T81 on both media", "setting": "Chloroflexus isolate T81 [1]", "result": "grew"}, {"measurement": "Growth of T26 on sole energy source, AOM1", "setting": "Chloroflexus isolate T26", "result": "could grow"}]}
{"molecule": "CCO", "note": "[ethanol]", "values": [{"measurement": "Ethanol concentrations Strain T12 was able to grow on, up to (and including)", "setting": "Chloroflexus isolate T12 [4]", "result": "≤ 5.0 % (v/v)"}, {"measurement": "Effect of ethanol on growth of strain T81", "setting": "Strain T81; 5% (w/v) ethanol and 0.05% (w/v) fructose", "result": "inhibited the growth"}, {"measurement": "Ethanol concentrations all strains were able to grow on, up to (and including)", "setting": "[5]; FS3V, ethanol as sole energy source", "result": "≤ 2.0 % (v/v)"}]}
{"molecule": "OC[C@H]1O[C@H](O[C@H]2[C@H](O)[C@@H](O)[C@H](O)O[C@@H]2CO)[C@H](O)[C@@H](O)[C@@H]1O", "note": "[D-(+)-maltose]", "values": [{"measurement": "Growth of T81 on both media", "setting": "Chloroflexus isolate T81 [1]", "result": "grew"}]}
{"molecule": "O=C[C@@H](O)[C@H](O)[C@H](O)CO", "note": "[D-(+)-arabinose]", "values": [{"measurement": "Growth of T81 on sole energy source, FS3V", "setting": "Chloroflexus isolate T81 [2]", "result": "grew"}]}
{"molecule": "O=C[C@H](O)[C@@H](O)[C@@H](O)[C@H](O)C(=O)O", "note": "[galacturonic acid]", "values": [{"measurement": "Support of growth / energy for the isolates T81, T26 and T12", "setting": "[5]; sole energy sources, AOM1 or FS3V", "result": "did not support growth"}]}
{"molecule": "O=C[C@H](O)[C@@H](O)[C@H](O)[C@H](O)CO", "note": "[D-glucose]", "values": [{"measurement": "Growth of T81 on both media", "setting": "Chloroflexus isolate T81 [1]", "result": "grew"}]}
{"molecule": "OC[C@H]1O[C@H](OC[C@H]2O[C@H](O[C@]3(CO)O[C@H](CO)[C@@H](O)[C@@H]3O)[C@H](O)[C@@H](O)[C@@H]2O)[C@H](O)[C@@H](O)[C@H]1O", "note": "[raffinose]", "values": [{"measurement": "Growth of T81 on both media", "setting": "Chloroflexus isolate T81 [1]", "result": "grew"}]}
{"molecule": "OC[C@H]1O[C@H](O[C@H]2O[C@H](CO)[C@@H](O)[C@H](O)[C@H]2O)[C@H](O)[C@@H](O)[C@@H]1O", "note": "[D-(+)-trehalose]", "values": [{"measurement": "Growth of T81 on both media", "setting": "Chloroflexus isolate T81 [1]", "result": "grew"}]}
